Values of other authors in PubChem BioAssay AID1259409 (Chemical Carcinogenesis Research Information System (CCRIS), 2018).

System: rodent chemically induced tumor inhibition, incidence and multiplicity
Experiment: CCRIS tumor inhibitor studies

Structure (SMILES)	tumour outcome (control, treated, inhibition, significance) (Carcinogen: N-ETHYL-N'-NITRO-N-NITROSOGUANIDINE, 4245-77-6, Dose [Inhibitor]: 0, 20 MG/KG/D IN DIET FOR 16 WK (STUDY DURATION: 16 WK), Route [Inhibitor]: ORAL, Species: MOUSE, Strain/Sex: C57BL/MALE, Target Tissue: Type of Lesion: DUODENUM: TUMOR, Dose [Carcinogen]: 100 MG/L IN DRINKING WATER FOR 4 WK, Promoter: NONE USED)	tumour outcome (control, treated, inhibition, significance) (Carcinogen: N-ETHYL-N'-NITRO-N-NITROSOGUANIDINE, 4245-77-6, Dose [Inhibitor]: 0, 20 MG/KG/D IN DIET FOR DURATION OF STUDY (STUDY DURATION: 16 WK), Route [Inhibitor]: ORAL, Species: MOUSE, Strain/Sex: C57BL/MALE, Target Tissue: Type of Lesion: DUODENUM: TUMOR, Dose [Carcinogen]: 100 MG/L IN DRINKING WATER FOR 4 WK, Promoter: NONE)	tumour outcome (control, treated, inhibition, significance) (Carcinogen: N-ETHYL-N'-NITRO-N-NITROSOGUANIDINE, 4245-77-6, Dose [Inhibitor]: 0, 50 MG/KG/D IN DIET FOR 16 WK (STUDY DURATION: 16 WK), Route [Inhibitor]: ORAL, Species: MOUSE, Strain/Sex: C57BL/MALE, Target Tissue: Type of Lesion: DUODENUM: TUMOR, Dose [Carcinogen]: 100 MG/L IN DRINKING WATER FOR 4 WK, Promoter: NONE USED)	tumour outcome (control, treated, inhibition, significance) (Carcinogen: N-ETHYL-N'-NITRO-N-NITROSOGUANIDINE, 4245-77-6, Dose [Inhibitor]: 0, 50 MG/KG/D IN DIET FOR DURATION OF STUDY (STUDY DURATION: 16 WK), Route [Inhibitor]: ORAL, Species: MOUSE, Strain/Sex: C57BL/MALE, Target Tissue: Type of Lesion: DUODENUM: TUMOR, Dose [Carcinogen]: 100 MG/L IN DRINKING WATER FOR 4 WK, Promoter: NONE)	tumour outcome (control, treated, inhibition, significance) (Carcinogen: N-METHYL-N'-NITRO-N-NITROSOGUANIDINE, 70-25-7, Dose [Inhibitor]: 0, 20 MG/KG/D IN DIET FOR 34 WK BEGINNING 10 WK POST FIRST CARCINOGEN DOSE (STUDY DURATION: 44 WK), Route [Inhibitor]: ORAL, Species: RAT, Strain/Sex: WISTAR/MALE, Target Tissue: Type of Lesion: STOMACH: TUMOR, Dose [Carcinogen]: 80 MG/L IN DRINKING WATER FOR 28 WK, Promoter: NONE)	tumour outcome (control, treated, inhibition, significance) (Carcinogen: 7,12-DIMETHYLBENZ[A]ANTHRACENE [57-97-6], Dose [Inhibitor]: 85 NMOL/G IN 0.1 ML ACETONE 2X/WK FOR 20 WK 1 HR PRIOR TO EACH PROMOTER DOSE BEGINNING 1 WK POST LAST CARCINOGEN DOSE (S, Route [Inhibitor]: DERMAL, Species: MOUSE, Strain/Sex: ICR/FEMALE, Target Tissue: Type of Lesion: SKIN: PAPILLOMA, Dose [Carcinogen]: 390 NMOL IN 0.1 ML ACETONE ONCE (STUDY DURATION: 21 WK), Promoter: 12-O-TETRADECANOYL-13-ACETATE [16561-29-8])
O=C(NC(Cc1cc(=O)[nH]c2ccccc12)C(=O)O)c1ccc(Cl)cc1 (stereo unspecified)	22/33 (67%), 18/33 (55%), 18%, not significant	22/33 (67%), 18/31 (58%), 13%, not significant	22/33 (67%), 14/33 (42%), 37%, p<0.05	22/33 (67%), 14/31 (45%), 33%, not significant	10/13 (77%), 8/13 (62%), 19%, not significant	
CCCC(=O)C1=C(O)C(Cc2c(O)c(C)c(OC)c(C(=O)CCC)c2O)=C(O)C(C)(C)C1=O						100%, 85%, 15%, not calculated
